Several values for one entry are separate records, joined by “and”; a condition that tells them apart may be missing. Identical values can stand only once. Counter-ions that a name gives are not always drawn.
Experiments:
[1] = test system: oxazolone-induced mouse ear swelling; assay: Model for inhibition of topical inflammation (oxazolone-induced mouse ear swelling); assay type: in vivo; conditions: BALB/c mice, ear thickness 24 hours after oxazolone challenge
Description: Model for Inhibition of Topical Inflammation. […] Left ears were untreated. The thickness of both ears of each animal was measured with a Dyer model micrometer gauge 24 hours after oxazolone challenge, and the net increase in thickness of right ears versus left ears was calculated for each animal. Percent inhibition was calculated according to the formula: [(Iv−It)/Iv]×100, where Iv and It respectively refer to the average net increase in right ear thickness (mm) for vehicle and candidate compound treated mice.

[2] = molecular target: T1, human recombinant p38α protein kinase (Homo sapiens, UniProt Q16539); assay: Human p38α MAP kinase inhibition assay (cell-free); assay type: biochemical; conditions: inhibition of phosphorylation of myelin basic protein by recombinant human p38α MAP kinase by 50%; Table III; read-out: IC50 p38α MAPK
T1 construct: purchased UBI (Upstate Biotechnology) 14-251; host or cells: E. coli
T1 sequence (Q16539 whole entry): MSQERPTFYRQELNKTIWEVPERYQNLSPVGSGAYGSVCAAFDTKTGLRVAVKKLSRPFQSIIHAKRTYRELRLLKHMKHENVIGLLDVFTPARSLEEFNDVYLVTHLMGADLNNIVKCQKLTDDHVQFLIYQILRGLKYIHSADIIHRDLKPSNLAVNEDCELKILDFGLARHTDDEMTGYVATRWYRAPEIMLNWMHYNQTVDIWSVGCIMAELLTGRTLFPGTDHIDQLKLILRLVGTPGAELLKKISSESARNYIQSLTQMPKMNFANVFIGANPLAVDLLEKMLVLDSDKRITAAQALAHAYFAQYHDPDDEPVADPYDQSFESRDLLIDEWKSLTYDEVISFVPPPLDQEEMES
Description: In vitro cell-free p38α MAP kinase inhibition assays were conducted by the method as described in Clerk et al., FEBS Lett., 426:93-96 (1998) for a number of lactones in formulas I/IIa/IIb. Briefly, human recombinant p38α protein kinase expressed in E. coli (UBI #14-251) was used. Myelin basic protein (MBP, UBI #13-110) was employed as substrate, and microtiter plate wells were coated with MBP (0.01 mg/ml) overnight at 4° C. Candidate compound and/or vehicle was preincubated with 0.075 μg/mL enzyme in modified HEPES buffer pH 7.4 at 25° C. for 15 minutes. The reaction was initiated by addition of 100 μM ATP and allowed to proceed for another 60 minutes. The reaction was terminated by aspirating the solution. Phosphorylated MBP was detected by incubation with a mouse monoclonal IgG2a anti-phosphoMBP antibody. Bound anti-phosphoMBP antibody was quantitated by incubation with a HRP conjugated goat anti-mouse IgG.

[3] = molecular target: T2, rat liver HMG-CoA reductase (Rattus norvegicus, UniProt P51639); assay: Cell-free HMG-CoA reductase inhibition assay; assay type: biochemical; conditions: concentration required to inhibit rat liver HMG-CoA reductase by 50%; read-out: IC50 HMG-CoA R
T2 sequence (P51639 1-887): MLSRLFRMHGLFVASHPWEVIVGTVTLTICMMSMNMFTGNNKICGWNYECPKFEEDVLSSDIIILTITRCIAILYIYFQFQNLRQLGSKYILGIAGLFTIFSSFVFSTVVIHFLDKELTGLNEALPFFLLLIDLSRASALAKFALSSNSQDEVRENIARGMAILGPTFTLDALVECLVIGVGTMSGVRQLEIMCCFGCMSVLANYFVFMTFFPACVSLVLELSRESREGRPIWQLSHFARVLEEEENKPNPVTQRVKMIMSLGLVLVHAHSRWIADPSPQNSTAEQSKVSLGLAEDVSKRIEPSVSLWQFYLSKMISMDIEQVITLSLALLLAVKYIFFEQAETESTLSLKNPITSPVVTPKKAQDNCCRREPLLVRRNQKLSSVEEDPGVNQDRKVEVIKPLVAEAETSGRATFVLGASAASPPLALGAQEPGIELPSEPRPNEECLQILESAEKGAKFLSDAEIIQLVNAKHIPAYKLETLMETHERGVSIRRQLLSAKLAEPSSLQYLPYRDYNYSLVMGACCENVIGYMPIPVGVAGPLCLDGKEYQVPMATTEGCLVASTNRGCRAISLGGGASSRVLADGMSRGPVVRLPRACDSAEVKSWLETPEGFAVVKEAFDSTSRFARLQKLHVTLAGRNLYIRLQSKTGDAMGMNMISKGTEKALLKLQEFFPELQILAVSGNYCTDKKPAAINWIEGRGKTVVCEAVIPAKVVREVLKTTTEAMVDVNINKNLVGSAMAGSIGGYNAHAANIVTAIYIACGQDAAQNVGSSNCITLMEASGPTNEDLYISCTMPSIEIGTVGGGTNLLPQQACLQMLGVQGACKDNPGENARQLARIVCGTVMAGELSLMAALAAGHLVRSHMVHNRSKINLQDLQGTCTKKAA
Description: An example of a cell-free HMG-CoA reductase assay involves radiometric procedures described in Shum et al., Ther. Drug Monit. 20:41-49 (1998), incorporated herein by reference. Briefly, about 150 μg/mL of HMG-CoA reductase can be incubated with a candidate compound, together with about 12 μM [^14C]HMG-CoA and about 200 μM NADPH in about 200 μL 0.2M phosphate buffer (pH about 7.2) for about 0.5 h at about 37° C. The [^14C]mevalonate that forms can be converted under acidic conditions to [^14C]mevalonolactone and separated from un-reacted substrate, for example, by ion-exchange chromatography, and then quantified, for example, by liquid scintillation counting.

[4] = test system: LPS-induced TNF-α release from human peripheral blood mononuclear cells; assay: Whole cell LPS-stimulated TNF-α release assay; assay type: cell-based; conditions: inhibition of LPS-induced TNF-α release from human peripheral blood mononuclear cells by 50%
Description: The procedure as described in Welker et al., Int. Arch. Allergy and Immunol. 109:110-115 (1996) can be followed. Briefly, a candidate compound and/or vehicle can be preincubated with human peripheral blood mononuclear leukocytes (PBML, 5×10^5/ml) cells in AIM-V medium pH 7.4 for 2 hours. Lipopolysaccharide (LPS, 25 ng/ml) can be added to stimulate the cells, which can be incubated overnight at 37° C. TNF-α cytokine levels in the conditioned medium can then be quantitated using a sandwich ELISA kit.

[5] = dose 2 × 0.3 mg topical to right ear
[6] = dose 2 × 1 mg topical to right ear
[7] = dose 2 × 2 mg topical to right ear

Row | Structure (SMILES) | % Inh. [1, 5] | % Inh. [1, 7] | also measured
1 | CC(C)c1c(C(=O)Nc2ccccc2)c(-c2ccccc2)c(-c2ccc(F)cc2)n1CC[C@@H]1C[C@@H](O)CC(=O)O1 [Atorvastatin lactone] | 40% | 50% | % Inh. ([1]; dose 2 × 0.3 mg topical to right ear, listed as atorvastatin lactone): 50% and 58% and 40%; % Inh. [1, 6]: 58%
2 | CC(C)c1c(C(=O)Nc2ccccc2)c(-c2ccccc2)c(-c2ccc(F)cc2)n1CC[C@@H](O)C[C@@H](O)CC(=O)O [Atorvastatin sodium] | 9% | 63% | % Inh. [1, 6]: 31%
3 | CCC(C)c1nn(-c2ccnc(Nc3ccccc3)c2)c(-c2ccc(F)cc2)c1/C=C/[C@@H](O)C[C@@H](O)CC(=O)O (stereo partly drawn) [Example 10a, (3R,5S,E)-7-(3-sec-butyl-5-(4-fluorophenyl)-1-(2-(phenylamino)pyridin-4-yl)-1H-pyrazol-4-yl)-3,5-dihydroxyhept-6-enoic acid calcium salt] | – | – | IC50 [2]: 11 µM; IC50 [3]: 0.003 µM; IC50 [4]: 21 µM
4 | O=C(O)C[C@H](O)C[C@H](O)CCc1c(-c2ccccc2)nn(-c2ccnc(Nc3ccccc3)n2)c1-c1ccccc1 [Example 11c, (3R,5R)-7-(3,5-diphenyl-1-(2-(phenylamino)pyrimidin-4-yl)-1H-pyrazol-4-yl)-3,5-dihydroxyheptanoic acid] | – | – | IC50 [4]: 18 µM
5 | CC(C)n1c(/C=C/C(O)CC(O)CC(=O)O)c(-c2ccc(F)cc2)c2ccccc21 (centres unmarked) [Fluvastatin sodium] | 28% | – | –
6 | COc1ccc2c(c1)c(CC(=O)O)c(C)n2C(=O)c1ccc(Cl)cc1 [Indomethacin] | 44% | – | –
7 | O=C([O-])C[C@H](O)C[C@H](O)/C=C/c1c(C2CC2)nc2ccccc2c1-c1ccc(F)cc1.O=C([O-])C[C@H](O)C[C@H](O)/C=C/c1c(C2CC2)nc2ccccc2c1-c1ccc(F)cc1.[Ca+2] [Pitavastatin calcium] | 9% | 60% | –
8 | CC[C@H](C)C(=O)O[C@H]1C[C@H](O)C=C2C=C[C@H](C)[C@H](CC[C@@H](O)C[C@@H](O)CC(=O)O)[C@H]21 [Pravastatin sodium] | 24% | – | –
9 | CC(C)c1nc(N(C)S(C)(=O)=O)nc(-c2ccc(F)cc2)c1/C=C/[C@@H](O)C[C@@H](O)CC(=O)O [Rosuvastatin sodium] | 20% | – | –

From US20070015779A1, “COMPOSITIONS AND TREATMENTS FOR INHIBITING KINASE AND/OR HMG-COA REDUCTASE” (priority 2005, published 2007)
